Common to all, as to experiment: inhibition of tumour cell growth, NCI panel, 48 h
The test system of assay [1] is SK-OV-3.
Assay [2] relates to LOX IMVI.
For assay [3], the system named is OVCAR-5.
Assay [4] relates to MDA-MB-435.
For assay [5], the system named is RPMI-8226.
Assay [6] has as its system SF-539.
Assay [7] deals with MDA-N.
The test system of assay [8] is SNB-75.
Assay [9] has as its system OVCAR-3.
For assay [10], the system named is NCI-H460.
The test system of assay [11] is HCC 2998.
Assay [12] has as its system RXF 393.
The test system of assay [13] is DU-145.
Assay [14] concerns ACHN.
The subject of assay [15] is HCT-116.
Assay [16] relates to SF-268.
In assay [17] the test system is T47D.
In assay [18] the test system is OVCAR-4.
The test system of assay [19] is K562.
For assay [20], the system named is HOP-62.

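All cell lines were grown in 96-well plates and treated with compound for 48 hours. GI50 = concentration required for 50% inhibition of growth.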 The source made the active and inactive calls. Cut-off read from the data, not from the text of the source: active = GI50 up to about 1.1 µM and inactive = higher. Square brackets hold non-standard residues; d marks the D form. Peptide text beside a SMILES is read from it. 2Nal = N[CH](Cc1ccc2ccccc2c1)C(=O)O

As to `O=c1c2c3c(sc2nc2n1NC=NN2)CCCC3`, the GI50 was 42.8 µM (inactive) in [1]; 2.49 µM (inactive) in [2]; 18.2 µM (inactive) in [3]; 12.8 µM (inactive) in assay [4]; 20.5 µM (inactive) in assay [5]; 17.4 µM (inactive) in assay [6]. Further, the GI50 is 16 µM (inactive) in assay [7]; 23.8 µM (inactive) in assay [8]; 1.28 µM (inactive) in assay [9]; 20.2 µM (inactive) in [10]; 24.4 µM (inactive) in assay [11]; 25.2 µM (inactive) in assay [12]. Besides, the GI50 in assay [13] is 36.6 µM (inactive); in assay [14] it was 16.7 µM (inactive); in [15] it was 17.9 µM (inactive); in [16], 17.5 µM (inactive); in assay [17], 31.8 µM (inactive); in assay [18] it was 17.6 µM (inactive). Moreover, the GI50 in assay [19] is 2.15 µM (inactive).

Regarding `NCCNc1ccc(NCCN)c2c1C(=O)c1c(O)ccc(O)c1C2=O`, the GI50 was 0.0266 µM (active) in assay [1]; 0.007 µM (active) in assay [2]; 0.971 µM (active) in assay [3]; 1.15 µM (inactive) in [4]; 0.0106 µM (active) in assay [5]; 0.0219 µM (active) in [6]. In addition, the GI50 in [7] was 1.13 µM (inactive); in assay [8] it was 0.0162 µM (active); in assay [9], 0.486 µM (active); in assay [10], < 0.001 µM (active); in assay [11], 0.423 µM (active); in assay [12] it was 0.0719 µM (active). Further, the GI50 in assay [13] is 0.109 µM (active); in [14] it was 0.00542 µM (active); in assay [15], 0.051 µM (active); in assay [16], 0.00721 µM (active); in assay [17], 0.229 µM (active); in assay [18] it was 0.207 µM (active).

As to `O=[N+]([O-])c1ccc(NC(=S)N/N=C(\c2ccccc2)c2ccccn2)cc1`, the GI50 in [1] is 1.4 µM (inactive); in assay [3] it was 1.88 µM (inactive); in [4], 1.74 µM (inactive); in [5], 4.74 µM (inactive); in assay [6], 1.74 µM (inactive); in [7], 1.6 µM (inactive). Moreover, the GI50 in assay [8] is 2.1 µM (inactive); in assay [20] it was 0.242 µM (active); in assay [10] it was 4.85 µM (inactive); in assay [11] it was 1.51 µM (inactive); in [12] it was 1.38 µM (inactive); in assay [13], 1.66 µM (inactive). For the same compound, the GI50 in assay [14] is 1.16 µM (inactive); in [15], 1.49 µM (inactive); in [16], 0.0491 µM (active); in assay [17] it was 1.45 µM (inactive); in [18] it was 1.73 µM (inactive); in assay [19], < 0.01 µM (active).

With `CC1C2CC(C(S(=O)(=O)N3CCOCC3)/C2=N\O)C1(C)C` (stereo not drawn), the GI50 in assay [1], in assay [2], in assay [4], in assay [5], in assay [6] and in [7] was > 100 µM (inactive) in each case. Also, the GI50 in assay [8], in [20], in assay [9], in assay [10], in [11] and in assay [12] was > 100 µM (inactive) each time. The GI50 in assay [13], in [14], in [15], in assay [16], in assay [17] and in assay [18] was > 100 µM (inactive) each time. The GI50 in [19] was > 100 µM (inactive).

In the case of `Cc1cc(S(=O)(=O)/N=C(\NN)NCC(=O)NN)c(S)cc1Cl`, the GI50 in assay [1], in [2], in [3], in assay [4], in assay [5] and in [6] was > 10 µM (inactive) each time. Besides, the GI50 in assay [7] is > 10 µM (inactive); in [8], > 10 µM (inactive); in assay [20], > 10 µM (inactive); in [9], > 10 µM (inactive); in assay [10] it was > 10 µM (inactive); in assay [11] it was 8.73 µM (inactive). Besides, the GI50 in assay [12], in assay [13], in assay [14], in assay [15], in assay [16] and in assay [17] was > 10 µM (inactive) throughout. Also, the GI50 in assay [18] and in assay [19] was > 10 µM (inactive) in each case.

Regarding `O=C[C@@H](CO)O[C@H](C=O)n1cnc2c(=O)nc[nH]c21`, the GI50 was 501 µM (inactive) in assay [1]; 86.9 µM (inactive) in assay [2]; 634 µM (inactive) in assay [3]; 243 µM (inactive) in assay [4]; 131 µM (inactive) in assay [5]; 490 µM (inactive) in assay [6]. Besides, the GI50 is 108 µM (inactive) in assay [7]; 667 µM (inactive) in assay [8]; 264 µM (inactive) in [20]; 290 µM (inactive) in assay [9]; 603 µM (inactive) in assay [10]; 116 µM (inactive) in assay [11]. Also, the GI50 in assay [12] was 239 µM (inactive); in [13], 261 µM (inactive); in [14] it was 540 µM (inactive); in assay [15], 177 µM (inactive); in assay [16], 431 µM (inactive); in assay [17], 60.5 µM (inactive). The GI50 was 399 µM (inactive) in [18] and 83.9 µM (inactive) in assay [19].

For `COc1cc(C2SC(=N)Nc3c2c(C)nn3C(=O)c2ccc(Cl)cc2)cc(OC)c1OC` (stereo not drawn), the GI50 in [1], in assay [2], in [3], in assay [4], in [5] and in [6] was > 10 µM (inactive) in each case. Moreover, the GI50 in assay [7], in assay [8], in assay [20], in [9], in assay [10] and in [11] was > 10 µM (inactive) in each case. Also, the GI50 in assay [12], in assay [13], in assay [14], in assay [15], in assay [16] and in assay [17] was > 10 µM (inactive) each time. Besides, the GI50 in [18] and in [19] was > 10 µM (inactive) in each case.

Take `Cc1cc(=O)oc2cc(OC(=O)Nc3ccc(Cl)c(Cl)c3)ccc12`: the GI50 in assay [1] was 36.4 µM (inactive); in assay [2], 18.9 µM (inactive); in [3], 20.4 µM (inactive); in assay [4], 20.9 µM (inactive); in assay [5], 9.29 µM (inactive); in assay [6] it was 18.8 µM (inactive). Further, the GI50 in assay [7] was 21.3 µM (inactive); in assay [8], 25.2 µM (inactive); in assay [20], 24.7 µM (inactive); in assay [9], 13 µM (inactive); in [10], 18.5 µM (inactive); in [11], 19.4 µM (inactive). Also, the GI50 in assay [12] is 14.3 µM (inactive); in [13], 25.3 µM (inactive); in [14], 20.9 µM (inactive); in assay [15], 15.5 µM (inactive); in assay [16], 38 µM (inactive); in assay [17] it was 12 µM (inactive). The GI50 in [18] is 41.3 µM (inactive); in assay [19], 10.9 µM (inactive).

Take `CN(C)c1nc2n(CCO)ccnc-2c(=O)n1`: the GI50 in assay [1], in assay [2], in assay [3], in assay [4], in assay [5] and in assay [6] was > 100 µM (inactive) in each case. Moreover, the GI50 in assay [7], in assay [8], in assay [20], in assay [9], in [10] and in assay [11] was > 100 µM (inactive) each time. In addition, the GI50 in assay [12], in assay [13], in [14], in assay [15], in [16] and in assay [17] was > 100 µM (inactive) throughout. Moreover, the GI50 in assay [18] and in assay [19] was > 100 µM (inactive) each time.

In the case of `CC(C)C(NC(=O)C(CCCCN)NC(=O)C(Cc1c[nH]c2ccccc12)NC(=O)C(Cc1ccc(O)cc1)NC(=O)C(CS)NC(=O)C(N)Cc1ccc2ccccc2c1)C(=O)NC(CS)C(=O)NC(C(N)=O)C(C)O` (stereo not drawn) (H-[2Nal]CYWKVCT-NH2; configuration not given here), the GI50 in [1], in assay [2], in assay [3], in assay [4], in [5] and in assay [6] was > 12.5 µM (inactive) in each case. Also, the GI50 in [7] is > 12.5 µM (inactive); in assay [8] it was > 100 µM (inactive); in assay [20], > 12.5 µM (inactive); in [9], > 12.5 µM (inactive); in assay [10], > 12.5 µM (inactive); in assay [11], > 12.5 µM (inactive). Besides, the GI50 in assay [12], in assay [13], in assay [14], in assay [15], in assay [16] and in [17] was > 12.5 µM (inactive) throughout. Moreover, the GI50 in assay [18] was > 12.5 µM (inactive).
